Entries after “also recorded” stand apart in the source; their conditions may differ. Positions of bridges follow the written chain, without caps; N, C: chain ends. No end group written: not given here.
Experiments:
Assay type in all cases: in vivo
BalbC mice = test: Blastocyst transfer after intrauterine injection: number and spacing of viable implantation sites; conditions: AM 150 pmol into lumen of each uterine horn, day 2.5 of pseudopregnancy, evaluated three days post-transfer, vs vehicle
Text: A, Images of e6.5 embryos within uteri treated with vehicle, AM, or AM+AM(24-50) prior to transfer of 8 blastocysts per horn. Arrowheads indicate viable implantation sites as determined by uptake of Evans blue dye. Scale bar, 1 cm. B, Quantitation of viable implant sites per horn. ns, not significant. *p<0.05, Mann-Whitney test. C, Illustration of quantitation method for spacing of e6.5 embryos within uterine horns. SD, standard deviation. D, Quantitation of spacing using method depicted in (C). *p<0.05, unpaired t test.
It was hypothesized that administration of AM, an endocrine factor critical for a healthy pregnancy, to female mice would improve uterine receptivity and implantation rates. […] Dams were euthanized three days later, and the number and spacing of the viable implantation sites were evaluated.
Using this conceptually simple but elegant in vivo experiment, it was concluded that delivery of AM directly into the uterine lumen prior to the establishment of pregnancy promotes blastocyst implantation. This conclusion was arrived at by quantitating the number and spacing of viable implantation sites in uterine horns that were treated with either vehicle or AM prior to blastocyst transfer.

wild-type mice [1] = test: Rate of pinopode formation throughout a treatment time course; conditions: AM 150 pmol, days 2.5-3.5 of pseudopregnancy, vs vehicle
Method: A, Scanning electron micrographs of vehicle- and AM-treated uteri throughout treatment time course. Scale bars, 1 μm. B, Quantitation of pinopodes per field throughout treatment time course. *p<0.05 at indicated time point, unpaired t test.
Further studies were performed to measure the effect of AM (150 pmol) on the rate of pinopode formation. The number of pinopodes was quantitated throughout a time course of AM treatment in wild-type mice (FIGS. 4A-4B).

wild-type mice [2] = test: Pinopode formation and size in uteri treated for 30 min (scanning electron micrographs); conditions: AM 150 pmol, vs vehicle
Method: A, Scanning electron micrographs of pinopodes in wild type uteri treated with vehicle, AM, or AM+AM(24-50) for 30 minutes. Scale bars, 5 μm. B-D, Quantitation of pinopodes per field (B), size (C), and percent area of field (D). n=3 animals, n>4 fields per animal. ***p<0.001, unpaired t test.
The effect of AM on pinopode formation and size was studied. Wild-type mice were treated with vehicle, AM (150 pmol), or AM (150 pmol)+AM(24-50) (2 nmol) for 30 min and the amount and size of pinopodes was quantitated (FIGS. 3A-3D).

adrenomedullin (YRQSMNNFGGLRSFGCRFGTCTVQKLAHQIYQFTDKDKDNVAPRSKISPQGY; disulfide 16-21 (inferred); ends not checked; listed as Homo sapiens) [AM, peptide vasodilator]
number of viable implantation sites per horn (BalbC mice; 8 blastocysts per horn 5-10 min later): improves implantation success; also recorded: significantly more embryo implantation sites; also recorded: significantly more viable implantation sites | spacing of viable implantation sites (BalbC mice; 8 blastocysts per horn): improves implantation success and spacing; also recorded: evenly distributed throughout the length of the horn; also recorded: more evenly distributed throughout the length of the horn | rate of pinopode formation (pinopodes per field over time course) (wild-type mice [1]): accelerates pinopode formation | pinopode formation (pinopodes per field) (wild-type mice [2]): promotes pinopode formation | pinopode size (wild-type mice [2]): promotes pinopode formation and size

Reference: US10675306B2, “Adrenomedullin therapy to improve fetal implantation” (The University of North Carolina at Chapel Hill, priority 2015, dated 2020)
